From US8735129B2, “Ginsenoside glycosidase derived from the genus Terrabacter, and use thereof” (Korea Research Institute of Bioscience and Biotechnology, priority 2009, dated 2014) come the findings set out here.

Values joined by “and” are separate entries in the source; they are usually repeats but may differ in a detail not shown here. Identical values can stand only once. Like-named read-outs stand apart in the source and are kept apart here.

What all share (format): biochemical, Terrabacter ginsenosidimutans Gsoil 3082
In experiment [1] the test system is purified recombinant BGL-GYP17. Description: Effects of metal ions and chemical agents on ginsenoside glycosidase activity (pNPGlc substrate).
The test system of experiment [2] is recombinant Bgl-gyp17. Description: Enzymatic hydrolysis of PPD-type ginsenosides (TLC, HPLC, NMR). The note with it: 0.2 U enzyme, 50 mM sodium phosphate pH 7.0, 37° C., hydrolysis of glucoses at C-3. The protocol:
In order to analyze the specificity and selectivity of the recombinant enzyme for the hydrolysis of glucose at the C-3 and C-20 positions of PPD-type ginsenoside, ginsenoside Rb1, Rb2, Rc, Rd, and Rg3 were used as substrates. Each reaction mixture containing 0.2 U enzyme, 50 mM sodium phosphate buffer 0.1% (w/v) (pH 7.0), and the substrate was incubated at 37° C. Each sample was withdrawn at regular intervals, and an equal volume of water-saturated butanol was added to stop the reaction. The n-butanol fraction was evaporated to dryness, and any residual material was dissolved in CH3OH and then examined by TLC HPLC or NMR analysis.

The subject of experiment [3] is recombinant Bgl-gyp17. The description is as above.
Another experiment relates to Bgl-gyp17. Description: Substrate preference with chromogenic oNP and pNP glycosides. Conditions: 2.0 mM substrate; for Relative activity (%): 50 mM sodium phosphate pH 7.0, 37° C., activity on ONPGlu = 100%. The protocol:
1 activity unit was defined as the release of o-nitrophenol or p-nitrophenol per minute. For analysis of substrate preference, 2.0 mM chromogenic oNP and pNP (p-nitrophenyl) were used as the substrates, and incubated at 37° C. for 5 minutes. The analyzed substrates (Sigma) were pNP-β-D-glucopyranoside, pNP-β-D-galactopyranoside, pNP-β-D-fucopyranoside, pNP-β-D-glucosaminide, pNP-β-L-arabinopyranoside, pNP-β-D-mannopyronoside, pNP-β-D-xylopyranoside, pNP-α-D-glucopyranoside, pNP-α-L-arabinopyranoside, pNP-α-L-arabinopyranoside, pNP-α-D-rhamnopyranoside, pNP-α-D-mannopyranoside, pNP-α-D-xylopyranoside, o-nitrophenol[oNP]-β-D-glucopyranoside, oNP-β-D-galactopyranoside, oNP-β-D-fucopyranoside, and oNP-β-D-galactopyranoside.
In order to examine the substrate specificity of Bgl-gyp17, it was incubated in 50 mM sodium phosphate buffer containing 2.0 mM βα and β-type p-NP (p-nitrophenyl) and oNP (O-nitrophenyl)-glycosidase at pH 7.0 and 37° C. […] The Km and Vmax for the hydrolysis of pNPGlc by ginsenoside glycosidase were determined using 0-2 mM substrate and the enzyme kinetics program reported by Cleland. The values measured by the program were 4.24 mM and 0.10 mmol*min^−1*mg of protein^−1 for pNpGlc.

[4] abbreviates: 1 mM metal ion or reagent, 30 min at room temperature, pNPGlc substrate, 100% = 44.3 U/mg.
[5] abbreviates: 10 mM metal ion or reagent, 30 min at room temperature, pNPGlc substrate, 100% = 44.3 U/mg.

As to `OCCS` [Beta-Mercaptoethanol], the results for the “Relative activity (%)” value in experiment [1] (setting [4]) and in experiment [1] (setting [5]) were 98.4 ± 4.89% and 102.5 ± 4.57%, respectively.
Consider `CC(C)=CCC[C@](C)(O[C@@H]1O[C@H](CO[C@@H]2O[C@@H](CO)[C@H](O)[C@H]2O)[C@@H](O)[C@H](O)[C@H]1O)[C@H]1CC[C@]2(C)[C@@H]1[C@H](O)C[C@@H]1[C@@]3(C)CC[C@H](O[C@@H]4O[C@H](CO)[C@@H](O)[C@H](O)[C@H]4O)C(C)(C)[C@@H]3CC[C@]12C` [C-Mc1, compound Mc1], for which the “conversion of the ginsenoside by the enzyme (product)” value (shortened to “conversion … (product)”) in the experiment on recombinant Bgl-gyp17 [2] is given as “C-Mc”.
In the case of `[Ca+2].[Cl-].[Cl-]` [CaCl2], the “Relative activity (%)” value in experiment [1] (setting [4]) worked out at 91.8 ± 4.59%; in experiment [1] (setting [5]), 101.5 ± 5.23%.
With `[Cl-].[Cl-].[Co+2]` [CoCl2], the “Relative activity (%)” value in experiment [1] was 100.9 ± 8.43% and 97.0 ± 5.04%.
Take `[Cl][Cu][Cl]` [CuCl2]: the “Relative activity (%)” value in experiment [1] (setting [4]) came out at 84.7 ± 4.48%; in experiment [1] (setting [5]) it was 71.7 ± 5.07%.
On to `CC(C)=CCCC(C)(OC1OC(COC2OCC(O)C(O)C2O)C(O)C(O)C1O)C1CCC2(C)C1C(O)CC1C3(C)CCC(OC4OC(CO)C(O)C(O)C4O)C(C)(C)C3CCC12C` (stereo not drawn) [C—O, compound O], for which the “conversion … (product)” value with recombinant Bgl-gyp17 [2] is reported as “C—Y”.
For `O[C@@H](CS)[C@@H](O)CS` [DTT], the “Relative activity (%)” value in experiment [1] (setting [4]) was determined as 96.7 ± 5.59%; in experiment [1] (setting [5]) it was 96.6 ± 5.14%.
As for `O=C(O)CN(CCN(CC(=O)O)CC(=O)O)CC(=O)O` [EDTA], the “Relative activity (%)” value in experiment [1] (setting [4]) is recorded as 98.6 ± 6.49%; in experiment [1] (setting [5]), 96.6 ± 4.52%.
Regarding `CC(C)=CCC[C@](C)(O[C@@H]1O[C@H](CO)[C@@H](O)[C@H](O)[C@H]1O)[C@H]1CC[C@]2(C)[C@@H]1[C@H](O)C[C@@H]1[C@@]3(C)CC[C@H](O[C@@H]4O[C@H](CO)[C@@H](O)[C@H](O)[C@H]4O[C@@H]4O[C@H](CO)[C@@H](O)[C@H](O)[C@H]4O)C(C)(C)[C@@H]3CC[C@]12C` [Ginsenoside Rd], the results for the “conversion … (product)” value in the experiment on recombinant Bgl-gyp17 [2] and in the experiment with recombinant Bgl-gyp17 [2] (listed as Rd) were “converted into F2” and “C—K”, respectively.
For the molecule `[Cl][Hg][Cl]` [Hg^2+, HgCl2], the “effect on Bgl-gyp17 activity” value in experiment [1] is on record as “strongly inhibited the activity”.
For `[Cl-].[K+]` [KCl], the results for the “Relative activity (%)” value in experiment [1] (setting [4]) and in experiment [1] (setting [5]) were 102.7 ± 4.65% and 96.2 ± 4.64%, respectively.
Take `[Cl-].[Cl-].[Mg+2]` [MgCl2]: the “Relative activity (%)” value is 94.8 ± 5.10% in experiment [1] (setting [4]) and 95.2 ± 5.14% in experiment [1] (setting [5]).
Take `[Cl][Mn][Cl]` [MnCl2]: the “Relative activity (%)” value in experiment [1] (setting [4]) turned out to be 101.1 ± 5.45%; in experiment [1] (setting [5]), 96.9 ± 4.79%.
As for `[Cl-].[Na+]` [Nacl, NaCl], in experiment [1], the “Relative activity (%)” value was 102.3 ± 5.15% and 97.7 ± 4.51%.
As for `CCCCCCCCCCCCOS(=O)(=O)[O-].[Na+]` [SDS], the “concentration showing an inhibitory effect” value in experiment [1] is at least 10 mM. The figures for the “Relative activity (%)” value in experiment [1] (setting [4]) and in experiment [1] (setting [5]) were 94.8 ± 6.98% and 2.7 ± 3.22%, respectively.
For `[Cl-].[Cl-].[Zn+2]` [ZnCl2], the “Relative activity (%)” value in experiment [1] (setting [4]) was 92.8 ± 4.72%; in experiment [1] (setting [5]) it was 72.8 ± 4.27%.
With `CC(C)=CCC[C@](C)(O[C@@H]1O[C@H](CO)[C@@H](O)[C@H](O)[C@H]1O)[C@H]1CC[C@]2(C)[C@@H]1[C@H](O)C[C@@H]1[C@@]3(C)CC[C@H](O)C(C)(C)[C@@H]3CC[C@]12C` [compound K], in the experiment with recombinant Bgl-gyp17 [3] (Rb1 substrate, enzyme 1 mg/ml), the “time at which the final product was produced” value amounted to 24 h.
With `CC(C)=CCC[C@](C)(O)[C@H]1CC[C@]2(C)[C@@H]1[C@H](O)C[C@@H]1[C@@]3(C)CC[C@H](O[C@@H]4O[C@H](CO)[C@@H](O)[C@H](O)[C@H]4O[C@@H]4O[C@H](CO)[C@@H](O)[C@H](O)[C@H]4O)C(C)(C)[C@@H]3CC[C@]12C` [ginsenoside Rg3], the “conversion … (product)” value is “produced ginsenoside Rh2” in the experiment on recombinant Bgl-gyp17 [2] and “PPD” with recombinant Bgl-gyp17 [2] (listed as Rg3).
Regarding `CC(C)=CCC[C@](C)(O[C@@H]1O[C@H](CO[C@@H]2O[C@H](CO)[C@@H](O)[C@H](O)[C@H]2O)[C@@H](O)[C@H](O)[C@H]1O)[C@H]1CC[C@]2(C)[C@@H]1[C@H](O)C[C@@H]1[C@@]3(C)CC[C@H](O)C(C)(C)[C@@H]3CC[C@]12C` [gyp LXXV, gypenoside LXXV], the “conversion … (product)” value in the experiment with recombinant Bgl-gyp17 [2] is “C—K”. In the experiment on recombinant Bgl-gyp17 [3] (Rb1 substrate, enzyme 1 mg/ml), the “time at which it started to appear” value worked out at 10 min, the “time of decrease to almost undetectable level” value is listed as 24 h and the “time of maximum level” value is 2 h.
For the molecule `CC(C)=CCC[C@](C)(O[C@@H]1O[C@H](CO[C@@H]2O[C@H](CO)[C@@H](O)[C@H](O)[C@H]2O)[C@@H](O)[C@H](O)[C@H]1O)[C@H]1CC[C@]2(C)[C@@H]1[C@H](O)C[C@@H]1[C@@]3(C)CC[C@H](O[C@@H]4O[C@H](CO)[C@@H](O)[C@H](O)[C@H]4O)C(C)(C)[C@@H]3CC[C@]12C` [gyp XVII, gypenoside XVII], in the experiment on recombinant Bgl-gyp17 [2], the “conversion … (product)” value is given as “C—K”. In the experiment on recombinant Bgl-gyp17 [3] (printed: when ginsenoside Rb1 was 0.1 mg/ml), the “conversion of the ginsenoside” value was “subsequently converted into gyp LXXV”.
As to `O=[N+]([O-])c1ccccc1O[C@H]1O[C@H](CO)[C@H](O)[C@H](O)[C@H]1O` [oNP-α-D-galactopyranoside], in the experiment on Bgl-gyp17, the “Relative activity (%)” value was 0%.
For the molecule `C[C@H]1O[C@@H](Oc2ccccc2[N+](=O)[O-])[C@H](O)[C@@H](O)[C@H]1O` [oNP-β-D-fucopyranoside], the “Relative activity (%)” value in the experiment with Bgl-gyp17 is 15.88 ± 0.544%.
For the molecule `O=[N+]([O-])c1ccccc1O[C@@H]1O[C@H](CO)[C@H](O)[C@H](O)[C@H]1O` [oNP-β-D-galatopyranoside], the “Relative activity (%)” value in the experiment on Bgl-gyp17 turned out to be 2.33 ± 0.081%.
Take `O=[N+]([O-])c1ccccc1O[C@@H]1O[C@H](CO)[C@@H](O)[C@H](O)[C@H]1O` [oNP-β-D-glucopyranoside]: the “Relative activity (%)” value in the experiment with Bgl-gyp17 is 100.00 ± 3.542%. Besides, in the experiment with Bgl-gyp17 (pH 7.0, 37° C.), the “activity toward substrate” value is reported as “highest activity”.
In the case of `O=[N+]([O-])c1ccc(O[C@H]2O[C@H](CO)[C@@H](O)[C@H](O)[C@H]2O)cc1` [pNP-α-D-glucopyranoside], the “Relative activity (%)” value in the experiment with Bgl-gyp17 is given as 1.12 ± 0.214%.
For `O=[N+]([O-])c1ccc(O[C@H]2O[C@H](CO)[C@@H](O)[C@H](O)[C@@H]2O)cc1` [pNP-α-D-mannopyranoside], the “Relative activity (%)” value in the experiment with Bgl-gyp17 is 0%.
The same measure, in the same setting: the value for `O=[N+]([O-])c1ccc(O[C@@H]2O[C@@H](CO)[C@H](O)[C@H]2O)cc1` [pNP-α-L-arabinofuranoside] was 0%; that for `O=[N+]([O-])c1ccc(O[C@@H]2OC[C@H](O)[C@H](O)[C@H]2O)cc1` [pNP-α-L-arabinopyranoside] was 0%; that for `C[C@@H]1O[C@@H](Oc2ccc([N+](=O)[O-])cc2)[C@H](O)[C@H](O)[C@H]1O` [pNP-α-L-rhamnopyranoside] was 0%.
As for `C[C@H]1O[C@@H](Oc2ccc([N+](=O)[O-])cc2)[C@H](O)[C@@H](O)[C@H]1O` [pNP-β-D-fucopyranoside], the “Relative activity (%)” value in the experiment with Bgl-gyp17 is on record as 6.98 ± 0.063%.
As for `O=[N+]([O-])c1ccc(O[C@@H]2O[C@H](CO)[C@H](O)[C@H](O)[C@H]2O)cc1` [pNP-β-D-glactopyranoside], the “Relative activity (%)” value in the experiment on Bgl-gyp17 worked out at 0%.
Same read-out and setting: to `O=[N+]([O-])c1ccc(O[C@@H]2O[C@H](CO)[C@@H](O)[C@H](O)[C@H]2O)cc1` [pNP-β-D-glucopyranoside, p-nitrophenyl-β-D-glucopyranoside] belongs 89.52 ± 4.430%; to `N[C@H]1[C@H](Oc2ccc([N+](=O)[O-])cc2)O[C@H](CO)[C@@H](O)[C@@H]1O` [pNP-β-D-glucosaminide], 0%; to `O=[N+]([O-])c1ccc(O[C@@H]2O[C@H](CO)[C@@H](O)[C@H](O)[C@@H]2O)cc1` [pNP-β-D-mannopyranoside], 0%.
Same read-out and setting: the value for `O=[N+]([O-])c1ccc(O[C@@H]2OC[C@@H](O)[C@H](O)[C@H]2O)cc1` [pNP-β-D-xylopyranoside] was 0%; that for `O=[N+]([O-])c1ccc(OC2OCC(O)C(O)C2O)cc1` [pNP-β-L-binopyranoside] was 0%.
